Earlier results in patent publication US6797806B2, “Fragments of CR1 and their use” (AdProTech Limited, priority 1996, dated 2004).

What was measured:
[1] = in vivo
[2] = in vivo; remark: listed apart in the source
[3] = in vivo; remark: listed apart in the source
[4] = systemic inhibition of CA over 6 days
[5] = test system: myeloperoxidase activity (an indicator of neutrophil accumulation); conditions: rat

In the case of “sCR1: soluble CR1 construct, complement inhibitor, molecular weight 245 kilodaltons”, the “activity in a reversed passive Arthus reaction” value [1] is given as “demonstrated in vivo activity”, the “post-ischemic myocardial inflammation and necrosis” value [2] is given as “suppressed” and the “survival rates following transplantation” value [3] is given as “extended survival rates”. The “CNS inflammation, demyelination and deposition of complement components” value [4] was “blocked”, the clinical score [4] was “improvements in clinical score” and the “myeloperoxidase activity following traumatic injury” value [5] was “reduce myeloperoxidase activity”.
